{"source": "patent US11357779B2", "about": "(G1 Therapeutics, Inc., priority 2018, dated 2022)", "experiment": "Six- and twelve-month stability study of Form B at 25° C./60% RH and 40° C./75% RH", "type": "physicochemical", "method": "Form B was stored at 25° C./60% RH for twelve months and at 40° C./75% RH for six months."}
{"compound": "CC(C)N1CCN(c2ccc(Nc3ncc4cc5n(c4n3)C3(CCCCC3)CNC5=O)nc2)CC1", "note": "[Form B]", "values": [{"measurement": "long-term stability, time stable", "setting": "25° C. and 60% relative humidity", "value": "at least 1 year"}, {"measurement": "Appearance", "setting": "25° C./60% RH, 0M", "value": "Yellow"}, {"measurement": "HPLC Purity", "setting": "25° C./60% RH, 0M", "value": 99.5, "unit": "%"}, {"measurement": "Moisture (%)", "setting": "25° C./60% RH, 0M", "value": 4.9, "unit": "%"}, {"measurement": "XRPD", "setting": "25° C./60% RH, 0M", "value": "Form B"}, {"measurement": "Appearance", "setting": "25° C./60% RH, 3M", "value": "Yellow"}, {"measurement": "HPLC Purity", "setting": "25° C./60% RH, 3M", "value": 99.5, "unit": "%"}, {"measurement": "Moisture (%)", "setting": "25° C./60% RH, 3M", "value": 4.07, "unit": "%"}, {"measurement": "Appearance", "setting": "25° C./60% RH, 6M", "value": "Yellow"}, {"measurement": "HPLC Purity", "setting": "25° C./60% RH, 6M", "value": 99.5, "unit": "%"}, {"measurement": "Moisture (%)", "setting": "25° C./60% RH, 6M", "value": 7.53, "unit": "%"}, {"measurement": "Appearance", "setting": "25° C./60% RH, 9M", "value": "Yellow"}, {"measurement": "HPLC Purity", "setting": "25° C./60% RH, 9M", "value": 99.6, "unit": "%"}, {"measurement": "Moisture (%)", "setting": "25° C./60% RH, 9M", "value": 7.29, "unit": "%"}, {"measurement": "Appearance", "setting": "25° C./60% RH, 12M", "value": "Yellow"}, {"measurement": "HPLC Purity", "setting": "25° C./60% RH, 12M", "value": 99.5, "unit": "%"}, {"measurement": "Moisture (%)", "setting": "25° C./60% RH, 12M", "value": 7.48, "unit": "%"}, {"measurement": "XRPD", "setting": "25° C./60% RH, 12M", "value": "Form B"}, {"measurement": "XRPD spectrum at the longest time point studied", "setting": "25° C./60% RH, twelve months", "value": "conformed to the reference spectrum"}, {"measurement": "purity at the longest time point studied", "setting": "25° C./60% RH, twelve months", "value": 99.5, "unit": "%"}, {"measurement": "Appearance", "setting": "40° C./75% RH, 0M", "value": "Yellow solid"}, {"measurement": "HPLC Purity", "setting": "40° C./75% RH, 0M", "value": 99.5, "unit": "%"}, {"measurement": "Moisture (%)", "setting": "40° C./75% RH, 0M", "value": 4.9, "unit": "%"}, {"measurement": "XRPD", "setting": "40° C./75% RH, 0M", "value": "Form B"}, {"measurement": "Appearance", "setting": "40° C./75% RH, 1M", "value": "Yellow solid"}, {"measurement": "HPLC Purity", "setting": "40° C./75% RH, 1M", "value": 99.5, "unit": "%"}, {"measurement": "Moisture (%)", "setting": "40° C./75% RH, 1M", "value": 2.75, "unit": "%"}, {"measurement": "Appearance", "setting": "40° C./75% RH, 3M", "value": "Yellow solid"}, {"measurement": "HPLC Purity", "setting": "40° C./75% RH, 3M", "value": 99.5, "unit": "%"}, {"measurement": "Moisture (%)", "setting": "40° C./75% RH, 3M", "value": 7.47, "unit": "%"}, {"measurement": "XRPD", "setting": "40° C./75% RH, 3M", "value": "Form B"}, {"measurement": "Appearance", "setting": "40° C./75% RH, 6M", "value": "Yellow solid"}, {"measurement": "HPLC Purity", "setting": "40° C./75% RH, 6M", "value": 99.5, "unit": "%"}, {"measurement": "Moisture (%)", "setting": "40° C./75% RH, 6M", "value": 7.53, "unit": "%"}, {"measurement": "XRPD", "setting": "40° C./75% RH, 6M", "value": "Form B"}, {"measurement": "XRPD spectrum at the longest time point studied", "setting": "40° C./75% RH, six months", "value": "conformed to the reference spectrum"}, {"measurement": "purity at the longest time point studied", "setting": "40° C./75% RH, six months", "value": 99.5, "unit": "%"}]}
